Measurements published in patent US12310975B2, “Modulators of BCL6 proteolysis and associated methods of use” (Arvinas Operations, Inc., priority 2019, dated 2025).
pIC50: −log10 of the molar value.

Columns and labels:
[1] = target: T1, BCL6 (Homo sapiens (Human), UniProt P41182); experiment: Immunofluorescence high content imaging of BCL6 degradation in T47D cells; type: cell-based; conditions: for Dmax: T47D; for DC50: class symbols A-D, read-out: EC50 (nM)*
Procedure, shortened: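 T47D cells were treated for 3 days at 37 °C with 11-point 3-fold dilutions of bifunctional degrader (final top 0.1 or 1 μM). BCL6 was detected by immunofluorescence after PFA fixation, with Hoechst and cell mask counterstains, and imaged at 10×, 4 fields/well.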

[2] = target: T1, BCL6; experiment: BCL6 TR-FRET assay (BCL6-Avitag-Biotin / BCoR-Cy5 peptide); type: binding; conditions: for pIC50: read-out: IC50; for IC50: class symbols A-D, read-out: IC50 (nM)***
Procedure, shortened: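 TR-FRET displacement assay: biotinylated His-SUMO-BCL6-Avitag (2 nM) pre-incubated 30 min at room temperature with compound (12-point 3-fold titration), then BCoR-Cy5 peptide (100 nM) and Eu-streptavidin (2 nM) added. Buffer: 50 mM HEPES pH 7.5, 125 mM NaCl, 0.01% Triton X, glutathione or DTT, 0.03% BSA. Read after 2 h.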

Compound	Dmax [1]	pIC50 [2]	Dmax ([1]; maximum, class symbols A-C)	DC50 [1]	IC50 [2]	also measured
CNC(=O)COc1cc2cc(Nc3nc(N4CCCC(COc5ccc(C6CCN(CCC(O)c7ccc8c(c7)CN(C7CCC(=O)NC7=O)C8=O)CC6)cc5)C4)ncc3Cl)ccc2n(C)c1=O (stereo not drawn) [compound 127, 2-((6-((5-chloro-2-(3-((4-(1-(3-(2-(2,6-dioxopiperidin-3-yl)-1-oxoisoindolin-5-yl)-3-hydroxypropyl)piperidin-4-yl)phenoxy)methyl)piperidin-1-yl)pyrimidin-4-yl)amino)-1-methyl-2-oxo-1,2-dihydroquinolin-3-yl)oxy)-N-methylacetamide]	–	–	< 50%	10 to 50 nM	< 10 nM	–
Cn1c(=O)n(CCC(C)(C)O)c2cc(Nc3nc(N4CCC(OC5CC6(CCN(c7cccc8c7C(=O)N(C7CCC(=O)NC7=O)C8=O)CC6)C5)CC4)ncc3Cl)ccc21 (stereo not drawn) [compound 493, 4-(2-{[1-(5-chloro-4-{[3-(3-hydroxy-3-methylbutyl)-1-methyl-2-oxo-2,3-dihydro-1H-1,3-benzodiazol-5-yl]amino}pyrimidin-2-yl)piperidin-4-yl]oxy}-7-azaspiro[3.5]nonan-7-yl)-2-(2,6-dioxopiperidin-3-yl)-2,3-dihydro-1H-isoindole-1,3-dione]	< 50%	7.30 to 8.00	–	–	–	–
CNC(=O)COc1cc2cc(Nc3nc(N(C)C)ncc3Cl)ccc2n(CCCOc2ccc3c(c2)C(=O)N(C2CCC(=O)NC2=O)C3=O)c1=O (stereo not drawn) [compound 469, 2-[(6-{[5-chloro-2-(dimethylamino)pyrimidin-4-yl]amino}-1-(3-{[2-(2,6-dioxopiperidin-3-yl)-1,3-dioxo-2,3-dihydro-1H-isoindol-5-yl]oxy}propyl)-2-oxo-1,2-dihydroquinolin-3-yl)oxy]-N-methylacetamide]	< 50%	7.30 to 8.00	–	–	–	–
CNC(=O)COc1cc2cc(Nc3nc(N4CC5(CCN(CC6CCN(c7cccc8c7C(=O)N(C7CCC(=O)NC7=O)C8=O)CC6)C5)C4)ncc3Cl)ccc2n(C(C)C)c1=O (stereo not drawn) [compound 511, 2-{[6-({5-chloro-2-[6-({1-[2-(2,6-dioxopiperidin-3-yl)-1,3-dioxo-2,3-dihydro-1H-isoindol-4-yl]piperidin-4-yl}methyl)-2,6-diazaspiro[3.4]octan-2-yl]pyrimidin-4-yl}amino)-2-oxo-1-(propan-2-yl)-1,2-dihydroquinolin-3-yl]oxy}-N-methylacetamide]	≥ 70%	> 8.00	–	–	–	–
CNC(=O)COc1cc2cc(Nc3nc(N4CCC5(CC4)CN(CC4CCN(c6ccc(C(=O)NC7CCC(=O)NC7=O)c(OC)c6)CC4)C5)ncc3Cl)ccc2n(C(C)C)c1=O (stereo not drawn) [compound 447, 4-[4-({7-[5-chloro-4-({3-[(methylcarbamoyl)methoxy]-2-oxo-1-(propan-2-yl)-1,2-dihydroquinolin-6-yl}amino)pyrimidin-2-yl]-2,7-diazaspiro[3.5]nonan-2-yl}methyl)piperidin-1-yl]-N-(2,6-dioxopiperidin-3-yl)-2-methoxybenzamide]	≥ 70%	7.30 to 8.00	–	–	–	–
CNC(=O)COc1cc2cc(Nc3nc(N4CCN(CC5CCC6(CC5)CN(c5cc(F)cc7c5C(=O)N(C5CCC(=O)NC5=O)C7=O)C6)CC4)ncc3Cl)ccc2n(C(C)C)c1=O (stereo not drawn) [compound 540, 2-{[6-({5-chloro-2-[4-({2-[2-(2,6-dioxopiperidin-3-yl)-6-fluoro-1,3-dioxo-2,3-dihydro-1H-isoindol-4-yl]-2-azaspiro[3.5]nonan-7-yl}methyl)piperazin-1-yl]pyrimidin-4-yl}amino)-2-oxo-1-(propan-2-yl)-1,2-dihydroquinolin-3-yl]oxy}-N-methylacetamide]	≥ 70%	> 8.00	–	–	–	–
CNC(=O)COc1cc2cc(Nc3nc(N4CCCC(COc5ccc(C6CCN(CC#Cc7ccc8c(c7)CN(C7CCC(=O)NC7=O)C8=O)CC6)cc5)C4)ncc3Cl)ccc2n(C)c1=O (stereo not drawn) [compound 167, 2-((6-((5-chloro-2-(3-((4-(1-(3-(2-(2,6-dioxopiperidin-3-yl)-1-oxoisoindolin-5-yl)prop-2-yn-1-yl)piperidin-4-yl)phenoxy)methyl)piperidin-1-yl)pyrimidin-4-yl)amino)-1-methyl-2-oxo-1,2-dihydroquinolin-3-yl)oxy)-N-methylacetamide]	–	–	< 50%	> 100 nM	10 to 50 nM	–

Now from value to compound, other results behind:

Dmax [1]	pIC50 [2]	Dmax ([1]; maximum, class symbols A-C)	DC50 [1]	IC50 [2]	Compound	also measured
50 to 70%	> 8.00	–	–	–	CNC(=O)COc1cc2cc(Nc3nc(N4CCC5(CCN(CC6CCN(c7ccc8c(c7)C(=O)N(C7CCC(=O)NC7=O)C8=O)CC6)CC5)C4)ncc3Cl)ccc2n(C(C)C)c1=O (stereo not drawn) [compound 490, 2-{[6-({5-chloro-2-[8-({1-[2-(2,6-dioxopiperidin-3-yl)-1,3-dioxo-2,3-dihydro-1H-isoindol-5-yl]piperidin-4-yl}methyl)-2,8-diazaspiro[4.5]decan-2-yl]pyrimidin-4-yl}amino)-2-oxo-1-(propan-2-yl)-1,2-dihydroquinolin-3-yl]oxy}-N-methylacetamide]	–
< 50%	–	–	–	–	CNC(=O)COc1cc2cc(Nc3nc(N4CCN(CCCN5CCN(c6ccc7c(c6)C(=O)N(C6CCC(=O)NC6=O)C7=O)CC5)CC4)ncc3Cl)ccc2n(C)c1=O (stereo not drawn) [compound 230, 2-((6-((5-chloro-2-(4-(3-(4-(2-(2,6-dioxopiperidin-3-yl)-1,3-dioxoisoindolin-5-yl)piperazin-1-yl)propyl)piperazin-1-yl)pyrimidin-4-yl)amino)-1-methyl-2-oxo-1,2-dihydroquinolin-3-yl)oxy)-N-methylacetamide]	IC50 [1]: 10 to 50 nM; EC50 [2]: < 10 nM
50 to 70%	> 8.00	–	–	–	CNC(=O)COc1cc2cc(Nc3nc(N4CCC5(CC4)CC(CN4CCN(c6cccc7c6C(=O)N(C6CCC(=O)NC6=O)C7=O)CC4)C5)ncc3Cl)ccc2n(C(C)C)c1=O (stereo not drawn) [compound 484, 2-{[6-({5-chloro-2-[2-({4-[2-(2,6-dioxopiperidin-3-yl)-1,3-dioxo-2,3-dihydro-1H-isoindol-4-yl]piperazin-1-yl}methyl)-7-azaspiro[3.5]nonan-7-yl]pyrimidin-4-yl}amino)-2-oxo-1-(propan-2-yl)-1,2-dihydroquinolin-3-yl]oxy}-N-methylacetamide]	–
50 to 70%	> 8.00	–	–	–	CNC(=O)COc1cc2cc(Nc3nc(N4CCC(CN5CCC6(CC5)CCN(c5ccc7c(c5)C(=O)N(C5CCC(=O)NC5=O)C7=O)C6)CC4)ncc3Cl)ccc2n(C(C)C)c1=O (stereo not drawn) [compound 489, 2-{[6-({5-chloro-2-[4-({2-[2-(2,6-dioxopiperidin-3-yl)-1,3-dioxo-2,3-dihydro-1H-isoindol-5-yl]-2,8-diazaspiro[4.5]decan-8-yl}methyl)piperidin-1-yl]pyrimidin-4-yl}amino)-2-oxo-1-(propan-2-yl)-1,2-dihydroquinolin-3-yl]oxy}-N-methylacetamide]	–
–	–	< 50%	10 to 50 nM	10 to 50 nM	CC(=O)COc1cc2cc(Nc3nc(N4CCN(C5CCCN(c6ccc7c(c6)C(=O)N(C6CCC(=O)NC6=O)C7=O)C5)CC4)ncc3Cl)ccc2n(C)c1=O (stereo not drawn) [compound 161, 5-(3-(4-(5-chloro-4-((1-methyl-2-oxo-3-(2-oxopropoxy)-1,2-dihydroquinolin-6-yl)amino)pyrimidin-2-yl)piperazin-1-yl)piperidin-1-yl)-2-(2,6-dioxopiperidin-3-yl)isoindoline-1,3-dione]	–
50 to 70%	> 8.00	–	–	–	CNC(=O)COc1cc2cc(Nc3nc(N4CCC(N5CCC6(CCN(c7cccc8c7C(=O)N(C7CCC(=O)NC7=O)C8=O)CC6)C5)CC4)ncc3Cl)ccc2n(C(C)C)c1=O (stereo not drawn) [compound 527, 2-[(6-{[5-chloro-2-(4-{8-[2-(2,6-dioxopiperidin-3-yl)-1,3-dioxo-2,3-dihydro-1H-isoindol-4-yl]-2,8-diazaspiro[4.5]decan-2-yl}piperidin-1-yl)pyrimidin-4-yl]amino}-2-oxo-1-(propan-2-yl)-1,2-dihydroquinolin-3-yl)oxy]-N-methylacetamide]	–
–	–	50 to 70%	10 to 50 nM	< 10 nM	CC(=O)COc1cc2cc(Nc3nc(N4CCC(N5CCC(N(C)CCOc6ccc7c(c6)CN(C6CCC(=O)NC6=O)C7=O)C5)CC4)ncc3Cl)ccc2n(C)c1=O (stereo not drawn) [compound 157, 3-(5-(2-((1-(1-(5-chloro-4-((1-methyl-2-oxo-3-(2-oxopropoxy)-1,2-dihydroquinolin-6-yl)amino)pyrimidin-2-yl)piperidin-4-yl)pyrrolidin-3-yl) (methyl)amino)ethoxy)-1-oxoisoindolin-2-yl)piperidine-2,6-dione]	–
–	–	50 to 70%	10 to 50 nM	50 to 100 nM	CC(=O)COc1cc2cc(Nc3nc(N4CCC(CN5CCN(c6ccc7c(c6)C(=O)N(C6CCC(=O)NC6=O)C7=O)CC5)CC4)ncc3Cl)ccc2n(C)c1=O (stereo not drawn) [compound 152, 5-(4-((1-(5-chloro-4-((1-methyl-2-oxo-3-(2-oxopropoxy)-1,2-dihydroquinolin-6-yl)amino)pyrimidin-2-yl)piperidin-4-yl)methyl)piperazin-1-yl)-2-(2,6-dioxopiperidin-3-yl)isoindoline-1,3-dione]	–
< 50%	–	–	–	–	CNC(=O)COc1cc2cc(Nc3nc(N4CCC(CN5CC6CC5CN6c5ccc6c(c5)C(=O)N(C5CCC(=O)NC5=O)C6=O)CC4)ncc3Cl)ccc2n(C)c1=O (stereo not drawn) [compound 204, 2-((6-((5-chloro-2-(4-((5-(2-(2,6-dioxopiperidin-3-yl)-1,3-dioxoisoindolin-5-yl)-2,5-diazabicyclo [2.2.1]heptan-2-yl)methyl)piperidin-1-yl)pyrimidin-4-yl)amino)-1-methyl-2-oxo-1,2-dihydroquinolin-3-yl)oxy)-N-methylacetamide]	IC50 [1]: < 10 nM; EC50 [2]: 10 to 50 nM
